Laboratory results from patent US20260022114A1, “N-(5-SUBSTITUTED-[(1,3,4-THIADIAZOLYL) OR (1,3-THIAZOLYL)](SUBSTITUTED)CARBOXAMIDE COMPOUNDS, PHARMACEUTICAL COMPOSITIONS, AND METHODS OF PREPARING THE AMIDE COMPOUNDS AND OF THEIR USE” (Repare Therapeutics Inc., priority 2022, published 2026).
“Also recorded” adds a separate entry of the source.

Key:
[1] = Liver microsomal stability assay; type: in vitro ADME; details: pH 7.4; human liver microsomes, 1 μM compound
Protocol: Liver microsomes were thawed on ice prior to use. The incubation mixtures were prepared in 96-well plates and contained test compound or control (1 μM), liver microsomes (0.5 mg of microsomal protein/mL), MgCl2 (5 mM), phosphate buffer (100 mM, pH 7.4), 0.01% DMSO and 1% acetonitrile. A T=0 aliquot was withdrawn after 10 min pre-incubation at 37° C. on a shaker. Reactions were initiated by the addition of NADPH (final concentration of 1 mM) and the plate was kept on a shaker at 37° C., further samples were withdrawn at 5, 15, 30, and 60 minutes. At each timepoint, the reactions were immediately terminated by adding of ice-cold acetonitrile containing internal standard to the withdrawn sample. The extracted samples were centrifuged for 10 minutes at 3200 rpm to pellet the precipitated microsomal protein, and the supernatant was combined 1:1 with water and analyzed by LC-MS/MS. Using the T=0 peak area ratio as 100%, the percentage of parent compound remaining was calculated. For each compound, the In percentage remaining versus incubation time was plotted and the slope of this linear regression (−k) was converted to an in vitro T1/2 value and CLint using the equations below.

CYP3A4 [2] = biological target: T1, CYP3A4 (Homo sapiens (Human), UniProt P08684); test: Reversible CYP inhibition in human liver microsomes (midazolam); type: in vitro ADME
Protocol: A seven-point semi-log dilution of each test compound (up to 30 μM) or positive control inhibitors for CYP2C9 (up to 1000 nM sulphenazole), CYP2D6 (up to 500 nM quinidine) and CYP3A4 (up to 250 nM ketoconazole) were dissolved in DMSO and added to the incubation plate using a Tecan 300 (normalized for 0.3% DMSO content). Final reaction conditions were: human liver microsomes (0.1 mg/mL), potassium phosphate buffer 100 mM pH 7.4, 1 mM magnesium chloride, 5 μM diclofenac, 5 μM dextromethorphan and 2.5 μM midazolam. After a pre-incubation at 37° C. The reaction was started with the addition of NADPH solution at the final concentration of 1 mM and carried out at 37° C. for 5 minutes. The reaction was stopped by the addition of 1 volume of cold acetonitrile with internal standard (labetalol) to the incubation plate. The incubation plate was centrifuged at 3000 rpm for 10 minutes to precipitate proteins, and the supernatant was analyzed by LC-MS/MS. Metabolite area ratio (4-OH-diclofenac, dextrorphan and 1-OH-midazolam) versus ISTD area ratio was used as the quantitative signal. Data were analyzed using the plot log of concentration (x-axis) versus the percentage of inhibition (y axis) and the IC50, Hill Slope and R^2 were determined.

PXR nuclear receptor = PXR nuclear receptor (Homo sapiens (Human), UniProt O75469); test: PXR activation luciferase reporter assay; type: cell-based; details: 0.03-10 μM test compound; for PXR activation (% Max activity): percentage of the response of Rifampicin at 10 μM; for fold induction at 24 h: versus vehicle-treated cells, read-out: PXR activation (Max fold induction)
Protocol: An expression vector harboring a full-length PXR nuclear receptor plus the appropriate enhancers and promoters linked to the luciferase reporter gene were integrated into the tumor cells. Tumor cells transfected with the species-specific nuclear receptor and the corresponding response elements were seeded in a 96-well plate. Twenty-four hours after seeding, the cells were treated with six distinct concentrations (0.03-10 μM) of the test compound. The cells were then returned to the incubator for an additional 24 h. After this incubation period, the number of viable cells/well were determined using Promega's Cell Titer Fluor cytotoxicity assay. At the end of the assay, Promega's ONE-Glo was added to assess the receptor activation by monitoring reporter gene activity, and by comparing the results to vehicle-treated cells. Activation data were normalized to the number of viable cells/well. Results are expressed as a percentage of the response given by Rifampicin, the positive control, at a 10 μM dose.

CYP3A4 [3] = biological target: T1, CYP3A4; test: Time-dependent inhibition (TDI), IC50 shift +/-NADPH, human liver microsomes; type: in vitro ADME; details: IC50 −NADPH divided by IC50 +NADPH
Protocol: Test compound or positive control inhibitors (CYP2C9: Tienilic acid; CYP2D6: paroxetine; CYP3A4: mifepristone) were dissolved in DMSO and a semi-log dilution (up to 50.0 μM) was prepared to 2 incubation plates and normalized for a final DMSO content of 0.5%. Human liver microsomes were diluted at 1 mg/mL with 100 mM potassium phosphate buffer pH 7.4 (1 mM MgCl2) and added to both incubation plates. After pre-incubation at 37° C., the reaction was started with the addition of NADPH (+NADPH condition) or with water (−NADPH condition). Plates were incubated for 30 min and 8 μL were transferred to a second incubation plate containing 72 μL of 1 mM NADPH, 20 μM diclofenac (CYP2C9), 20 μM dextromethorphan (CYP2D6) and 10 μM midazolam (CYP3A4) in 100 mM potassium phosphate buffer pH 7.4 (1 mM MgCl2). Plates were incubated for 10 min and the reaction was stopped by the addition of cold acetonitrile containing internal standard (1:1 v/v). […] Metabolite area ratio (4-OH-diclofenac, dextrorphan and 1-OH-midazolam) versus internal standard area ratio was used as the quantitative signal. Data were analyzed using the plot log of concentration (x axis) versus the percentage of inhibition (y axis) and IC50. Hill Slope and R^2 were determined. The IC50 shift was then calculated by dividing the IC50-NADPH condition by the IC50 obtained in the +NADPH condition.

[4] = biological target: T2, PolQ ATPase enzyme (1-894) (Homo sapiens (Human), UniProt O75417); test: Polθ ATPase enzymatic assay (3 nM enzyme concentration), ADP-Glo; type: biochemical
Protocol: Following pre-incubation with inhibitors, DNA (Fork C) at 20 nM and ATP at 100 μM are added to start the reaction. Enzymatic reaction proceeds at rt for 60 min. ATP consumption is measured using the ADP-Glo assay from Promega. Luminescence is read on the Envision and IC50 are determined using the variable slope 4-parameters equation.
DNA (Fork C) is made by annealing 3 different oligos containing the following sequence of nucleotides:
Oligos are annealed by heating at 95° C. for 5 min in the following buffer (10 mM Tris-HCl PH7.5, 50 mM NaCl, 1 mM EDTA) and cooled to rt.
In Table 4, the Compounds were prepared according to Methods described previously using Intermediates described herein, commercially available reagents or intermediates described in the literature. In some cases, the use of protecting groups may be required to prepare Compounds described below.

[5] = tested on: DLD1 BRCA2 null tumor cells; test: Polθ-DNA-PK inhibitor combination, cell viability by Incucyte; type: cell-based; details: in combination with AZD-7648 (DNA-PK inhibitor), 8 days (FIG. 4)
Protocol: DLD1 BRCA2 null tumor cells were plated at 1000 cells/well in 96 well plates. Compounds were added on day 1 and cells were grown in at 37° C. for 8 days. Cell growth was assessed by the Incucyte assay. Cell viability was normalized to untreated cells.

[6] = tested on: MDAMB436 BRCA1 mutant breast tumor cells; test: as above; type: cell-based; details: in combination with AZD-7648 (DNA-PK inhibitor), 9 days (FIG. 3)
Protocol: MDAMB436 BRCA1 mutant breast tumor cells were plated at 1500 cells/well in 96 well plates. Compounds were added on day 1 and cells were grown in at 37° C. for 9 days. Cell growth was assessed by the Incucyte assay. Cell viability was normalized to untreated cells.

HCT116 BRCA2−/− cells = test: Combination of Compound 113 and PARP inhibitors, cell growth by Incucyte; type: cell-based
Protocol: HCT116-BRCA2−/− (750 cells/well) cells were seeded in a 96-well plate (Costar 3595) and incubated overnight in a tissue culture incubator (5% CO2, 37° C.). The next day, Compound 113 and PARP inhibitors (olaparib or niraparib) were added using a TECAN D300 instrument. Media was replenished with fresh compounds every 3 or 4 days. Cellular growth was monitored using the Incucyte® Live-Cell Analysis System until DMSO-treated wells reached 90% confluency (10-12 days). Cellular confluency was determined using Incucyte® Cell-by-Cell Analysis Software Module and dose-response curves calculated using GraphPad Prism software.

[7] = tested on: DOTC24510 BRCA 2 mutant breast tumor cells; test: Compound 113 and radiotherapy, cell viability by Incucyte; type: cell-based; details: 200 nM Compound 113 with radiotherapy at 0.5 or 1 Gy on days 2, 6, 9; read day 13 (FIG. 5)
Protocol: DOTC24510 BRCA 2 mutant breast tumor cells were plated in 96 well plates at a density of 1000 cells per well and cultured in tissue culture medium at 37° C. On day 1, cells were treated with either DMSO or 200 nM of Compound 113. Cells were irradiated with 0, 0.25, 0.5 or 1 Gy of radiation on days 2, 6, and 9. Cell viability was assessed by Incucyte assay on day 13.

HCT116 BRCA2−/− tumor = test: Polθ-PARP inhibitor combination therapy, tumor volume in mice; type: in vivo, SCID-Beige mice; details: Compound 113 30 mg/kg SDD suspension p.o. QD with olaparib 25 mg/kg p.o. QD; N=10, p=0.0008 (FIG. 2)
Protocol: (§1) A spray dried dispersion (SDD) formulation was developed using Compound 113. A 1:1 (w/w) mixture of Compound 113 and HPMCAS (grade H) were fully dissolved in a 4:1 (v/v) mixture of dichloromethane:methanol at a loading of ˜5% solid (w/w). The solution was spray-dried to an amorphous powder which was further dried overnight in a vacuum oven set to 40° C. to remove residual solvents. This SDD material was used for subsequent in vivo dosing in mouse models.
HCT116-BRCA2−/− (10^7 cells/mouse) cells were injected subcutaneously in SCID-Beige mice. Mice were randomized at a mean tumor volume of 150 mm^3. Compound 113 (30 mg/kg as an SDD suspension in 0.5% methocel+0.02% SLS) and PARP inhibitor olaparib (25 mg/kg) were dosed orally (p.o.) QD throughout the study. Control mice were dosed QD with vehicle solution. Tumor volumes measured (caliper) every 3-4 days. N=10, Welch's t test, *** p=0.0008.

DLD1-BRCA2−/− tumors = test: Compound 113 and carboplatin, tumor volume in mice; type: in vivo, SCID-Beige mice; details: Compound 113 45 mg/kg SDD suspension p.o. QD with carboplatin 25 mg/kg i.p. QW; day 35 N=10, p=0.0428 (FIG. 6A, 6B)
Protocol: as §1
DLD1-BRCA2−/− (10^7 cells/mouse) cells were injected subcutaneously in SCID-Beige mice. Mice were randomized at a mean tumor volume of 150 mm^3. Compound 113 (45 mg/kg as an SDD suspension in 0.5% methocel+0.02% SLS) was dosed orally (p.o.) QD throughout the study. Carboplatin (25 mg/kg) was dosed i.p. QW. Control mice were dosed QD and QW with corresponding vehicle solutions. Tumor volumes were measured (caliper) every 2-3 days.

[8] = biological target: T2, PolQ ATPase enzyme (1-894); test: Polθ ATPase enzymatic assay (0.5 nM enzyme concentration), ADP-Glo; type: biochemical; details: 0.5 nM PolQ ATPase enzyme (1-894); average IC50
Procedure, shortened: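 Human PolQ ATPase domain (1-894), 0.5 nM, preincubated 15 min at rt with 10-point inhibitor series in 50 mM Tris pH 7.5, 10% glycerol, 5 mM DTT, 10 mM MgCl2, 0.1 mg/ml BSA.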

PXR nuclear receptor, sequence (O75469 whole entry): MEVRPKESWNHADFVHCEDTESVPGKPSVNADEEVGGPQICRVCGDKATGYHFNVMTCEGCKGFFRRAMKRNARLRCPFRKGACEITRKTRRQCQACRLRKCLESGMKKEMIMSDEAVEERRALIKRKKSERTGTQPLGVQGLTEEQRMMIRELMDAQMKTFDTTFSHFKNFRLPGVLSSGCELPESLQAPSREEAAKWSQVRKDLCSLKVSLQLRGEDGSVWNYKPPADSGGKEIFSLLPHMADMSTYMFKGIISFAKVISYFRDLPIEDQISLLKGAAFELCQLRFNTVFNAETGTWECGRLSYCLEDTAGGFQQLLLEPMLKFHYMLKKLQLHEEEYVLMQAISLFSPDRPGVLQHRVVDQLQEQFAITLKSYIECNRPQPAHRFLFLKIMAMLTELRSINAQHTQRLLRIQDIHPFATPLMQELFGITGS
T1 sequence (P08684 whole entry): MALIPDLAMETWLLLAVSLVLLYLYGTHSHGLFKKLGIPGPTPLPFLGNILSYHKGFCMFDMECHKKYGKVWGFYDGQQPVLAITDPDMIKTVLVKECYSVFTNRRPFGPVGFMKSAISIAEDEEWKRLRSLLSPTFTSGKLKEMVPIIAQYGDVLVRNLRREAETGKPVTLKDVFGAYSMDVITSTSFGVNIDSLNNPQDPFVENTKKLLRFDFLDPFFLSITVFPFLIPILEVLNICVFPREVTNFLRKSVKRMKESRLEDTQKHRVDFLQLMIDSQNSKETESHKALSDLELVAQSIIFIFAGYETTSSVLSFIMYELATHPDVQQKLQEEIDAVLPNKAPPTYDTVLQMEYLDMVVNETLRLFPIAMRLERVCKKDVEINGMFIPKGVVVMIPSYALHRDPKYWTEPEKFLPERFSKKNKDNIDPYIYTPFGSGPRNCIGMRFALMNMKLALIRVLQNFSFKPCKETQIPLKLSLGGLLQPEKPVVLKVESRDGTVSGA
T2 sequence (O75417 1-894): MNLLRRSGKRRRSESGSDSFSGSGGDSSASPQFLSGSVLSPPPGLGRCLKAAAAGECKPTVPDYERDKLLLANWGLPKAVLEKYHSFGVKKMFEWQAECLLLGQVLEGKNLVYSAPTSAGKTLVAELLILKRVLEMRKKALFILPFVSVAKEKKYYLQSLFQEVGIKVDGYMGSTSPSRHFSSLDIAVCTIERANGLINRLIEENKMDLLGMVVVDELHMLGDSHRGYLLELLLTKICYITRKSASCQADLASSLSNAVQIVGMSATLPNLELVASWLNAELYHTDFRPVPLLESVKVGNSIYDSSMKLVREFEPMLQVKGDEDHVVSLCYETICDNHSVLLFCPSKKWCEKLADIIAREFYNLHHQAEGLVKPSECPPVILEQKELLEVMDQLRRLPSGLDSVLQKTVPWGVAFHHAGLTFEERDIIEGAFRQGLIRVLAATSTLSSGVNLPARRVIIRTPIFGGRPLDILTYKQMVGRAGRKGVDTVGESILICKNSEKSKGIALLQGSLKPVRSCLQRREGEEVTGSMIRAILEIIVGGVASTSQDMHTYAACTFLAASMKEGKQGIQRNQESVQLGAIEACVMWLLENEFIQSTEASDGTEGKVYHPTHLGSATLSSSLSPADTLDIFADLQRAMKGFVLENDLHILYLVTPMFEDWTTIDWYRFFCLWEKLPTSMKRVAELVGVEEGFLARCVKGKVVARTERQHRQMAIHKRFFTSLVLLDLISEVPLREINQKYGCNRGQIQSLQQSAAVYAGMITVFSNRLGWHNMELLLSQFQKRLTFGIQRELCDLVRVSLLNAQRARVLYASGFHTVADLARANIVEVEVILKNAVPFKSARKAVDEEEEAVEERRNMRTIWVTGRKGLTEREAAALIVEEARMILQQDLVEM

Compound	microsomal CLint at 1 μM [1]	IC50 (CYP3A4 [2])	PXR activation (% Max activity) (PXR nuclear receptor)	fold induction at 24 h (PXR nuclear receptor)	Time-dependent CYP3A4 inhibition-shift after 30 min with NADPH (CYP3A4 [3])	further results
COc1cnc(Cl)cc1-c1cnccc1C(=O)Nc1nnc(C#CC2CC2)s1	< 7.7 µL/min/mg	> 30000 nM	5.0%	1.8	1x	
COc1ccc(F)cc1-c1cnccc1C(=O)Nc1nnc([C@@H]2C[C@H]2c2nc3ccccc3n2C)s1 (racemic) [Compound 4, 3-(5-fluoro-2-methoxyphenyl)-N-(5-((1R,2R)-2-(1-methyl-1H-benzo[d]imidazol-2-yl)cyclopropyl)-1,3,4-thiadiazol-2-yl)isonicotinamide]						IC50 [4]: 92 nM
COc1cnc(C(F)F)cc1-c1cc(-c2ccn(C)n2)ncc1C(=O)Nc1nnc(C#CC2CC2)s1 [Compound 113, N-(5-(cyclopropylethynyl)-1,3,4-thiadiazol-2-yl)-2′-(difluoromethyl)-5′-methoxy-6-(1-methyl-1H-pyrazol-3-yl)-[4,4′-bipyridine]-3-carboxamide]						DLD1 BRCA2 null tumor cell viability, combination versus AZD-7648 alone [5]: sensitizes DLD1 BRCA2 null tumor cells to AZD-7648; also recorded: superior at reducing DLD1 BRCA2 null tumor cell viability; MDAMB436 BRCA1 cell viability, combination versus AZD-7648 alone [6]: sensitizes MDAMB436 breast tumor cells to AZD-7648; also recorded: superior at reducing MDAMB436 BRCA1 cell viability; percent viability of HCT116 BRCA2−/− cells, combination versus inhibitors alone (HCT116 BRCA2−/− cells; in combination with niraparib, 10-12 days (FIG. 1B)): superior at reducing cancer cell viability; percent viability of HCT116 BRCA2−/− cells, combination versus inhibitors alone (HCT116 BRCA2−/− cells; in combination with olaparib, 10-12 days (FIG. 1A)): superior at reducing cancer cell viability; DOTC24510 BRCA 2 mutant breast tumor cell viability, combination versus Compound 113 alone [7]: sensitizes DOTC24510 breast tumor cells to irradiation; also recorded: superior at reducing DOTC24510 BRCA 2 mutant breast tumor cell viability; HCT116 BRCA2−/− tumor volume, combination versus inhibitors alone (HCT116 BRCA2−/− tumor): superior at reducing tumor volume; DLD1-BRCA2−/− tumor volume, combination versus monotherapy treatments (DLD1-BRCA2−/− tumors): sensitizes DLD1 BRCA2 null tumors to carboplatin; also recorded: superior at reducing tumor volume in mice
COc1ccc(F)cc1-c1cnccc1C(=O)Nc1nnc(C#Cc2ccc(C#N)cc2)s1 [Compound 473]	46.4 µL/min/mg	1110 nM	2.0%	1.3	1x	IC50 [8]: 3.5 nM
